Data set [1] can be described thus: Accelerated stability of (Z)-endoxifen free base in polar organic solvents in the absence and presence of human cadaver skin. The data set is classed as physicochemical. The following applies: for % Potency: relative to initiation of study; for potency and stability in presence of skin compared with absence of skin: in the solvents of Table 3, 45° C., after 2 days. How it is done:
(§1) HPLC-UV. Briefly, (E)- and (Z)-endoxifen were analyzed by High Performance Liquid Chromatography, HPLC (instrument: Agilent 1100) using a UV detector (Agilent). Chromatographic resolution was obtained using a Luna Phenyl Hexyl Column ([…]×150 mm) at a column temperature of 40° C. Samples were injected in an injection volume of 10 ul and run at a flow rate of 1.0 ml/min. The mobile phase system used consisted of: A) water with 10 mM ammonium formate (HCOONH4) with 0.03% formic acid and B) Methanol with 10 mM ammonium formate (HCOONH4).
The stability studies of endoxifen free base in various pure polar organic solvents/MPEs were performed as described below. Accelerated stability studies of (Z)-endoxifen free base in solvents/MPEs were performed over a course of 2 days at 45° C. in both the presence and the absence of human cadaver skin to assess the degree to which the (Z)-endoxifen conversion to (E)-endoxifen by isomerization and or chemical degradation of the endoxifen is accelerated upon contact with skin and skin components. (Z)-Endoxifen solutions at […] of saturation concentrations were prepared in 1 ml batches in solvents as listed below in the Table 3. The potencies of (Z)-endoxifen and (E)-endoxifen were determined by HPLC-UV analysis as described above. Potency results are shown compared with potencies measured when the sample were stored at the initiation of stability study.

The conditions of data set [2]: cited from earlier work.
Data set [3] can be described thus: Solubility of endoxifen free base in polar organic solvents (HPLC-UV). Conditions: for Z/E Ratio: room temperature. The data set is classed as physicochemical. How it is done:
(Z)-endoxifen free base was synthesized as described above in Example 1. (Z)-endoxifen was solubilized in various solvents as provided in Table 1, and tested for physical and chemical stability in solution. The solutions were prepared in ˜1 ml batches typically for solubility and stability testing. The mixture was stirred overnight on a rotisserie at room temperature. The next, day, the suspension was filtered using a syringe filter (0.2 um pore size GHP membrane). The filtrated solution was then analyzed for the concentration of (Z)-endoxifen and (E)-endoxifen as using a validated HPLC-UV method as described below.
as §1
UV detection of (E)-endoxifen and (Z)-endoxifen isomers was performed at 243 nm with a run time of 30 minutes. Retention times for (E)-endoxifen and (Z)-endoxifen were 15.14 m and 16.25 m respectively. […] The solubility of (Z)-endoxifen ranged from about 1 mg/g of solution to over 30 mg/g of solution.

The test system of a further data set is patients. Conditions: oral tamoxifen; cited from earlier work.
Setting [4] is: in Diethyl Sebacate, 45° C. + skin, 2 days.
The mark [5] stands for this setting: in Diethyl Sebacate, 45° C., 2 days.
The mark [6] stands for this setting: in Diethylene glycol monoethyl ether, 45° C. + skin, 2 days.
Where [7] appears, read: in Diethylene glycol monoethyl ether, 45° C., 2 days.
Setting [8] is: in Diisopropyl Adipate, 45° C. + skin, 2 days.
[9] abbreviates: in Diisopropyl Adipate, 45° C., 2 days.
[10] abbreviates: in Dimethyl Isosorbide, 45° C. + skin, 2 days.
The mark [11] stands for this setting: in Dimethyl Isosorbide, 45° C., 2 days.
The mark [12] stands for this setting: in Dimethyl Sulfoxide, 45° C. + skin, 2 days.
The mark [13] stands for this setting: in Dimethyl Sulfoxide, 45° C., 2 days.
[14] abbreviates: in Dipropylene Glycol, 45° C. + skin, 2 days.
The mark [15] stands for this setting: in Dipropylene Glycol, 45° C., 2 days.
[16] abbreviates: in Isopropanol, 45° C. + skin, 2 days.
Setting [17] is: in Isopropyl Myristate, 45° C. + skin, 2 days.
[18] abbreviates: in Isopropyl Myristate, 45° C., 2 days.
Setting [19] is: in PEG 300, 45° C. + skin, 2 days.

Like-named read-outs stand apart in the source and are kept apart here.

The text below walks through data of patent publication US20200268690A1, “TOPICAL COMPOSITIONS” (Atossa Therapeutics, Inc., priority 2017, published 2020).

As for `CC/C(=C(/c1ccc(O)cc1)c1ccc(OCCNC)cc1)c1ccccc1` [(E)-endoxifen free base], the “% Potency” value in data set [1] (setting [4]) is 99%; in data set [1] (setting [5]) it was 101%; in data set [1] (setting [6]) it was 98%; in data set [1] (setting [7]) it was 100%; in data set [1] (setting [8]), 101%; in data set [1] (setting [9]) it was 100%. The “% Potency” value is 16% in data set [1] (setting [10]); 15% in data set [1] (setting [11]); 101% in data set [1] (setting [12]); 101% in data set [1] (setting [13]); 95% in data set [1] (setting [14]); 95% in data set [1] (setting [15]). Also, the “% Potency” value amounted to 106% in data set [1] (setting [16]); 106% in data set [1] (in Isopropanol, 45° C., 2 days); 68% in data set [1] (setting [17]); 67% in data set [1] (setting [18]); 92% in data set [1] (setting [19]); 91% in data set [1] (in PEG 300, 45° C., 2 days). In data set [1], the “potency and stability in presence of skin compared with absence of skin” value was “maintained potency and stability”.

Turning to `CC/C(=C(\c1ccc(O)cc1)c1ccc(OCCNC)cc1)c1ccccc1.Cl` [(Z)-endoxifen HCl], the t90 in data set [2] (45° C.) is given as 9 days; in data set [2] (room temperature), 149 days. Moreover, in data set [2] (aqueous medium, 45° C., day 15, from 98%), the “(Z)-endoxifen HCl remaining after degradation” value is listed as 75%.

For the compound `CC/C(=C(\c1ccc(O)cc1)c1ccc(OCCNC)cc1)c1ccccc1` [(Z)-endoxifen free base, (Z)-4-(1-(4-(2-(methylamino)ethoxy)phenyl)-2-phenylbut-1-enyl)phenol], the “% Potency” value stood at 94% in data set [1] (setting [4]); 100% in data set [1] (setting [5]); 98% in data set [1] (setting [6]); 100% in data set [1] (setting [7]); 99% in data set [1] (setting [8]); 99% in data set [1] (setting [9]). Also, the “% Potency” value in data set [1] (setting [10]) is 17%; in data set [1] (setting [11]) it was 16%; in data set [1] (setting [12]), 101%; in data set [1] (setting [13]), 102%; in data set [1] (setting [14]), 94%; in data set [1] (setting [15]), 93%. Further, the “% Potency” value worked out at 105% in data set [1] (setting [16]); 105% in data set [1] (in Isopropanol, 45° C., 2 days); 63% in data set [1] (setting [17]); 65% in data set [1] (setting [18]); 92% in data set [1] (setting [19]); 91% in data set [1] (in PEG 300, 45° C., 2 days). Further, the “potency and stability in presence of skin compared with absence of skin” value in data set [1] is “maintained potency and stability”.

Regarding `CC/C(=C(\c1ccc(O)cc1)c1ccc(OCCNC)cc1)c1ccccc1` [Endoxifen free base, (E/Z)-4-[1-[4-[2-(Methylamino)ethoxy]phenyl]-2-phenyl-1-buten-1-yl]-phenol], the “stability (in words)” value in data set [1] (dissolved in dimethyl isosorbide and isopropyl myristate, 45° C., 2 days) is listed as “poor stability”. The “solubility (in words)” value in data set [3] (in polar organic solvents/MPEs such as DMSO, ethanol, diethylene monoethyl ether, and oleic acid) is on record as “significantly soluble”. Further, the “Z/E Ratio” value was 0.63 in data set [3] (saturated solution in Capric Trigylceride (Solvent No. 15)); 1.7 in data set [3] (saturated solution in Diethyl Sebacate (Solvent No. 2)); 1.89 in data set [3] (saturated solution in Diethylene glycol monoethyl ether (Solvent No. 10)); 1.87 in data set [3] (saturated solution in Diisopropyl Adipate (Solvent No. 3)); 1.82 in data set [3] (saturated solution in Dimethyl Isosorbide (Solvent No. 4)); 1.87 in data set [3] (saturated solution in Dimethyl Sulfoxide (Solvent No. 1)). For the same compound, the “Z/E Ratio” value in data set [3] (saturated solution in Dipropylene Glycol (Solvent No. 5)) stood at 1.82; in data set [3] (saturated solution in Ethanol (Solvent No. 6)) it was 1.72; in data set [3] (saturated solution in Isopropanol (Solvent No. 7)) it was 1.88; in data set [3] (saturated solution in Isopropyl Myristate (Solvent No. 12)), 1.09; in data set [3] (saturated solution in Oleic Acid (Solvent No. 14)) it was 1.02; in data set [3] (saturated solution in PEG300 (Solvent No. 8)), 1.77. The “Z/E Ratio” value came to 1.78 in data set [3] (saturated solution in PEG 400 (Solvent No. 11)), 1.60 in data set [3] (saturated solution in Propylene Glycol (Solvent No. 9)) and 0.76 in data set [3] (saturated solution in Soybean Oil (Solvent No. 13)).

As to `CC/C(=C(\c1ccccc1)c1ccc(OCCN(C)C)cc1)c1ccccc1` [tamoxifen, (Z)-2-[4-(1,2-diphenyl-1-butenyl)phenoxy]-N,N-dimethylethanamine], in the data set on patients, the “patients with elevated liver function tests, especially SGOT/AST” value was “about 5%”.
